# Source: paper PMC9389804 (Journal of Hematology & Oncology, 2022)
# Assay: pharmacokinetics, plasma concentration-time curves (phase 1)
# Type: in vivo, human
# Description: The phase 1 study included pharmacokinetic analyses, for which blood samples were collected on Cycle 1 Day 1-2 (C1D1-[…]) and […]-[…]. Blood samples were collected on C1D1 before dosing (baseline) as well as at 8 and 24 h after dosing on C1D1, C1D15, and […]. For pharmacodynamic evaluations, phosphorylated CRK-like (pCRKL) adaptor protein in peripheral blood mononuclear cells was assayed as a biomarker of BCR-ABL1 inhibition.
smiles,measurement,setting,value
Cc1ccc(C(=O)Nc2ccc(CN3CCN(C)CC3)c(C(F)(F)F)c2)cc1C#Cc1cnc2[nH]ncc2c1 [olverembatinib],systemic exposure and maximum concentration (dose proportionality),1-60 mg QOD,approximately dose proportional
same,accumulation with multiple dosing,C1D27,slight to moderate accumulation
same,half-life,"human, oral, plasma, Days 1 and 27, 1-60 mg QOD, read-out: mean terminal elimination half-life",17.5 to 36.5 h
same,pharmacokinetics (linearity),"plasma concentration-time curves, Days 1 and 27",linear
